In PubChem BioAssay (NCI) one finds TGI and GI50 data, which are given here for twelve molecules.

Among the test systems are SNB-75 CNS; SK-OV-3 ovarian; ACHN renal; OVCAR-5 ovarian; A549 NSCLC; HT29 colon; NCI-H522 lung; SK-MEL-2 melanoma; UO-31 renal; TK-10 renal.
Holding throughout (test): growth of human tumour cells (NCI), 48 h

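A five-concentration, 48-hour dose response in 96-well plates underlies each endpoint, interpolated linearly between surrounding concentrations. GI50 marks 50% less growth. At the TGI there is no net growth.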 Bounds are passed on as bounds.

Consider `CC(=O)N=C1N(/C=C2\C(=O)Oc3ccccc3C2=O)C(=O)/C(=C/c2ccc(NC(C)=O)cc2)N1C`, for which the TGI in the assay with SNB-75 CNS, in the assay with SK-OV-3 ovarian, with ACHN renal, in the assay with OVCAR-5 ovarian, in the assay on A549 NSCLC and with HT29 colon was above 100 µM in each case. For the same molecule, the TGI with NCI-H522 lung and in the assay with SK-MEL-2 melanoma was above 100 µM in each case.
Turning to `CCOC(=O)c1sc2[n+](c1C)C(=O)/C(=C/c1ccc([N+](=O)[O-])cc1)S2`, the TGI in the assay on SNB-75 CNS was 49.7 µM; with SK-OV-3 ovarian, 64.6 µM; with ACHN renal, above 100 µM; with UO-31 renal, 33.4 µM; with OVCAR-5 ovarian, above 100 µM; in the assay with A549 NSCLC, above 100 µM. The figures for the TGI in the assay on HT29 colon, with SK-MEL-2 melanoma and in the assay on TK-10 renal were 41.9 µM, 51.2 µM and 50.7 µM, respectively.
`COc1ccc(C2SCC(=O)N2NC(=O)c2ccc(NC(C)=O)cc2)cc1` (configuration not stated): the TGI in the assay on SNB-75 CNS, in the assay with SK-OV-3 ovarian, in the assay with ACHN renal, with UO-31 renal, in the assay on OVCAR-5 ovarian and in the assay on A549 NSCLC was above 100 µM throughout. Besides, the TGI in the assay on HT29 colon, in the assay with SK-MEL-2 melanoma and in the assay on TK-10 renal was above 100 µM in each case.
Turning to `O=C(Nc1ccc(-n2ccc3c(NC(=O)c4ccccc4)ncnc32)cc1)Nc1cccc(Cl)c1Cl`, the GI50 was 0.777 µM in the assay with SNB-75 CNS; 1.35 µM in the assay with ACHN renal; 0.786 µM in the assay on UO-31 renal; 1.04 µM with OVCAR-5 ovarian; 0.952 µM in the assay with A549 NSCLC; 0.808 µM in the assay with HT29 colon. Besides, the GI50 with NCI-H522 lung is 0.972 µM; in the assay with SK-MEL-2 melanoma, 1.33 µM; with TK-10 renal it was 1.01 µM. Moreover, the TGI in the assay with SNB-75 CNS amounted to 2.71 µM; in the assay on ACHN renal it was 4.06 µM; with UO-31 renal it was 1.56 µM; in the assay with OVCAR-5 ovarian, 2.84 µM; in the assay on A549 NSCLC, 2.22 µM; in the assay with HT29 colon, 2.11 µM. Besides, the TGI in the assay with NCI-H522 lung came out at 3.11 µM; with SK-MEL-2 melanoma, 3.88 µM; with TK-10 renal, 2.34 µM.
Consider `O=C1CCCCCCCCCCC1CN1CCCCC1` (configuration not stated), for which the TGI in the assay with SNB-75 CNS, in the assay with ACHN renal, in the assay on UO-31 renal, in the assay on OVCAR-5 ovarian, in the assay with A549 NSCLC and with HT29 colon was above 100 µM in each case. The TGI in the assay with NCI-H522 lung, in the assay with SK-MEL-2 melanoma and in the assay with TK-10 renal was above 100 µM each time.
Turning to `Nc1ccc(C(=O)c2cn(CCN3CCOCC3)c3ccccc23)c2ccccc12`, the TGI in the assay with SK-OV-3 ovarian was above 100 µM; with ACHN renal, above 100 µM; in the assay with UO-31 renal, above 100 µM; with OVCAR-5 ovarian it was above 100 µM; in the assay with A549 NSCLC, above 100 µM; in the assay on HT29 colon, 55.9 µM. In addition, the TGI with NCI-H522 lung and in the assay on SK-MEL-2 melanoma was above 100 µM throughout.
As to `C=C(OC1C(C)=C2C(C1OC(=O)CCCCCCC)C(C)(OC(C)=O)CC(OC(=O)CCC)C1(O)C2OC(=O)C1(C)O)/C(C)=C/C` (configuration not stated), the GI50 with SNB-75 CNS was below 0.0001 µM; in the assay with UO-31 renal, 0.17 µM; in the assay with OVCAR-5 ovarian, below 0.0001 µM; with A549 NSCLC, below 0.0001 µM; with HT29 colon it was below 0.0001 µM; with SK-MEL-2 melanoma it was below 0.0001 µM. The TGI with SNB-75 CNS was 1.61 µM; in the assay with SK-OV-3 ovarian, 16.9 µM; in the assay with UO-31 renal, 0.614 µM; with OVCAR-5 ovarian it was 8.64 µM; with A549 NSCLC, 6.16 µM; with HT29 colon, 1.8 µM. The TGI is 1.11 µM with NCI-H522 lung and 0.0642 µM with SK-MEL-2 melanoma.
Turning to `O=C(NCc1cccc2ccccc12)N/N=C\c1ccc(Cl)cc1`, the TGI in the assay with SNB-75 CNS, in the assay with ACHN renal, in the assay with UO-31 renal, in the assay with OVCAR-5 ovarian, in the assay on HT29 colon and with NCI-H522 lung was above 100 µM each time. For the same molecule, the TGI with SK-MEL-2 melanoma and with TK-10 renal was above 100 µM throughout.
As to `Nc1nc(N)c2cc(NCc3ccc(Cl)c(Cl)c3)ccc2n1`, the GI50 was 1.23 µM in the assay with SNB-75 CNS; 1.31 µM in the assay with ACHN renal; 1.35 µM with UO-31 renal; 1.02 µM with OVCAR-5 ovarian; 0.528 µM with A549 NSCLC; 0.813 µM with HT29 colon. The GI50 is 1.31 µM in the assay with NCI-H522 lung, 1.82 µM with SK-MEL-2 melanoma and 1.59 µM with TK-10 renal. Moreover, the TGI in the assay with SNB-75 CNS was 2.48 µM; with ACHN renal, 2.58 µM; in the assay on UO-31 renal it was 2.89 µM; in the assay on OVCAR-5 ovarian, 2.19 µM; with A549 NSCLC it was 1.82 µM; in the assay on HT29 colon, 2.05 µM. In addition, the values for the TGI in the assay with NCI-H522 lung, in the assay with SK-MEL-2 melanoma and with TK-10 renal were 2.77 µM, 3.37 µM and 2.93 µM, respectively.
Take `O=[N+]([O-])c1cc2c(cc1/C=N/n1c(CO)nc3ccccc31)OCO2`: the TGI in the assay on SNB-75 CNS, in the assay with SK-OV-3 ovarian, in the assay with ACHN renal, with UO-31 renal, in the assay on OVCAR-5 ovarian and in the assay on A549 NSCLC was above 100 µM in each case. In addition, the TGI in the assay with HT29 colon, in the assay with SK-MEL-2 melanoma and in the assay on TK-10 renal was above 100 µM in each case.
In the case of `c1csc(C[N+]23CN4CN(CN(C4)C2)C3)c1`, the TGI was above 100 µM with SNB-75 CNS; above 100 µM with ACHN renal; above 100 µM in the assay on UO-31 renal; 67.3 µM with OVCAR-5 ovarian; 87 µM in the assay with A549 NSCLC; above 100 µM in the assay on HT29 colon. The values for the TGI with NCI-H522 lung, with SK-MEL-2 melanoma and in the assay on TK-10 renal were above 100 µM, 37.3 µM and 79.5 µM, respectively.
With `CC1=Nc2sc3c(c2C2=NCCN12)CCCC3`, the TGI in the assay on SNB-75 CNS was above 100 µM; with ACHN renal, 69.9 µM; in the assay on UO-31 renal, 50.5 µM; in the assay with OVCAR-5 ovarian, 92 µM; in the assay with HT29 colon it was 36.5 µM; in the assay with NCI-H522 lung, 41 µM. The TGI with SK-MEL-2 melanoma is 84.5 µM; in the assay with TK-10 renal, above 100 µM.
